Bridge positions count the residues as written; N and C are the ends. Peptide text beside a SMILES is read from it.
Molecular target: Eukaryotic translation initiation factor 4E (Homo sapiens, UniProt P06730)
Experiment: Binding affinity to recombinant human 10His-tagged eIF4E expressed in Escherichia coli BL21 (DE3) cells assessed as dissociation constant by surface plasmon resonance analysis

Eukaryotic translation initiation factor 4E, sequence (P06730 whole entry): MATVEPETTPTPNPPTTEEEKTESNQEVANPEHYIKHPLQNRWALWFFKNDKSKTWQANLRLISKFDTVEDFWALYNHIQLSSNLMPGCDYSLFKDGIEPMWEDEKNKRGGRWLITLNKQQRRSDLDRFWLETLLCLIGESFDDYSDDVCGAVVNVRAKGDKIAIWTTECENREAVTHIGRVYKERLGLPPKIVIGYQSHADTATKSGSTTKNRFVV

Row | koff | Structure (SMILES)
1 | 0.0069 s⁻¹ | CC[C@H](C)[C@H](NC(=O)[C@H](CCCNC(=N)N)NC(C)=O)C(=O)N[C@H](C(=O)N[C@@H](Cc1ccc(O)cc1)C(=O)N[C@@H](CC(=O)O)C(=O)N[C@@H](CCCNC(=N)N)C(=O)N[C@H]1CCC(=O)NCCCC[C@@H](C(=O)N[C@@H](CS)C(=O)N[C@@H](CCCNC(=N)N)C(N)=O)NC(=O)[C@H](CCSC)NC(=O)[C@H](CC(C)C)NC(=O)[C@H](Cc2ccccc2)NC1=O)[C@@H](C)CC (Ac-RIIYDREFLMKCR-NH2; lactam 7-11)
2 | 0.0042 s⁻¹ | CC[C@H](C)[C@H](NC(=O)[C@H](CCCNC(=N)N)NC(C)=O)C(=O)N[C@H](C(=O)N[C@@H](Cc1ccc(O)cc1)C(=O)N[C@@H](CC(=O)O)C(=O)N[C@@H](CCCNC(=N)N)C(=O)N[C@H]1CCCCNC(=O)CC[C@@H](C(=O)N[C@@H](CS)C(=O)N[C@@H](CCCNC(=N)N)C(N)=O)NC(=O)[C@H](CCSC)NC(=O)[C@H](CC(C)C)NC(=O)[C@H](Cc2ccccc2)NC1=O)[C@@H](C)CC (Ac-RIIYDRKFLMECR-NH2; lactam 7-11)
